The subject of one experiment is HT-1080. As to the kind of experiment: HT1080 cell viability loss – fluorescence readout (AID 620). The settings on record: Homo sapiens. Format: functional, cell-based.
Experiment [1] can be described thus: cells.
The target of experiment [2] is Luciferin 4-monooxygenase (Photinus pyralis, UniProt P08659). As to the kind of experiment: Counter Screen for Luciferase-based Assay Positives. [Related pubchem assays: 620, 618, 411 ].
Experiment [3] has as its target T1, Oxysterols receptor LXR-beta (Homo sapiens, UniProt P55055).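 Note: Cell-based luminescence dose-response assay of agonist activity at LXR, run as a confirmatory counterscreen to a daf-12 agonist screen; HEK293 cells with Gal4-LXR fusion and GAL4-driven luciferase reporter; agonist potency from rising luciferase signal of a Gal4-LXR reporter.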
T1 sequence (P55055 whole entry): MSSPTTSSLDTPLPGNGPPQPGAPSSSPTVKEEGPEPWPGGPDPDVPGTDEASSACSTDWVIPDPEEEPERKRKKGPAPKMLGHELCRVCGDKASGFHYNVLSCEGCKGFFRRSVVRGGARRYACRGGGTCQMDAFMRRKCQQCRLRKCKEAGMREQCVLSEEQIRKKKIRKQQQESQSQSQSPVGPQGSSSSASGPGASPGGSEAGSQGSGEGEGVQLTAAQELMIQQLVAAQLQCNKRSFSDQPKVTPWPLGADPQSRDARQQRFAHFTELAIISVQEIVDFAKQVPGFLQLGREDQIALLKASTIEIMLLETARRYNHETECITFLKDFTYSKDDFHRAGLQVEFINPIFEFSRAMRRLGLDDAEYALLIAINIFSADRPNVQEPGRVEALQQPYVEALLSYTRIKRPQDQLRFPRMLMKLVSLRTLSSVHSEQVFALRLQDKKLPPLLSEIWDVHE
In kind it is functional, cell-based.

Another experiment deals with T2, Aspartyl aminopeptidase (Plasmodium falciparum 3D7, UniProt Q8I2J3).
T2 sequence (Q8I2J3 whole entry): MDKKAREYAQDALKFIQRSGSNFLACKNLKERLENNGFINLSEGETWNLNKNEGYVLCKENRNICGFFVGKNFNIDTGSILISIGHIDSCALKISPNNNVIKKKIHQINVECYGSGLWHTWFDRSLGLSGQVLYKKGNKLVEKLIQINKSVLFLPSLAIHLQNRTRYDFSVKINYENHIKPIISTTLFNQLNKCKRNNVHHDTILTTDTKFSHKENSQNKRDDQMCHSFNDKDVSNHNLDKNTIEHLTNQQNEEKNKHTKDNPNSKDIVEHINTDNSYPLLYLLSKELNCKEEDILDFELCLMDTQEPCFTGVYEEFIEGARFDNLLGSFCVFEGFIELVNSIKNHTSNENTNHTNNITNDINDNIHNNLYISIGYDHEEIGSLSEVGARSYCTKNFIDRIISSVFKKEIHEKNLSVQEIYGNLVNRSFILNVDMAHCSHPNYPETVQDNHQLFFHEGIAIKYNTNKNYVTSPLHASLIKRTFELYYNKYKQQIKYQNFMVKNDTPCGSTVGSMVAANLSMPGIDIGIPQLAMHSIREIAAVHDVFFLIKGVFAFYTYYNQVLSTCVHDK

The next experiment addresses Procathepsin L (Homo sapiens, UniProt P07711).
Experiment [4] concerns the target T3, Orexin/Hypocretin receptor type 1 (Homo sapiens, UniProt O43613).
T3 sequence (O43613 whole entry): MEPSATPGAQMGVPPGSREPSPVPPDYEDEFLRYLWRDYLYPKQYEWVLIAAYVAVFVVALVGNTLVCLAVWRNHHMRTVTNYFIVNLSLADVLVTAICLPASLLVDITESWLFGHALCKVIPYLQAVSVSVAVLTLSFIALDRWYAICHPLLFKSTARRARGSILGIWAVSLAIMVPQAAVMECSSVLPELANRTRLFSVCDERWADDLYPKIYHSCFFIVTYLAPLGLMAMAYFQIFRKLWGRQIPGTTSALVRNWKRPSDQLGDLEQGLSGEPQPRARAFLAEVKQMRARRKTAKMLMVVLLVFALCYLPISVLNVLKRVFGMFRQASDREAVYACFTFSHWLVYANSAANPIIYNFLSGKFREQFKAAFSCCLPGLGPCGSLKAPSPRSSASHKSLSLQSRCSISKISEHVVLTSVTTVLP
As to the kind of experiment: Fluorescence-based cell-based high throughput dose response assay for antagonists of the orexin 1 receptor (OX1R; HCRTR1). [Related pubchem assays (depositor defined):AID434989, AID435008, AID463079, AID485270, AID492963, AID492964, AID492965, AID493232, AID504717, AID504718]. In kind it is functional.

Experiment [5] addresses T3, Orexin/Hypocretin receptor type 1. As to the kind of experiment: Homogeneous Time Resolved Fluorescence (HTRF)-based cell-based high throughput dose response assay for antagonists of the orexin 1 receptor (OX1R; HCRTR1). [Related pubchem assays (depositor defined):AID434989, AID435008, AID463079, AID485270, AID492963, AID492964, AID492965, AID493232, AID504717, AID504718]. In kind it is functional.

The target of experiment [6] is T4, Orexin receptor type 2 (Homo sapiens, UniProt O43614).
T4 sequence (O43614 whole entry): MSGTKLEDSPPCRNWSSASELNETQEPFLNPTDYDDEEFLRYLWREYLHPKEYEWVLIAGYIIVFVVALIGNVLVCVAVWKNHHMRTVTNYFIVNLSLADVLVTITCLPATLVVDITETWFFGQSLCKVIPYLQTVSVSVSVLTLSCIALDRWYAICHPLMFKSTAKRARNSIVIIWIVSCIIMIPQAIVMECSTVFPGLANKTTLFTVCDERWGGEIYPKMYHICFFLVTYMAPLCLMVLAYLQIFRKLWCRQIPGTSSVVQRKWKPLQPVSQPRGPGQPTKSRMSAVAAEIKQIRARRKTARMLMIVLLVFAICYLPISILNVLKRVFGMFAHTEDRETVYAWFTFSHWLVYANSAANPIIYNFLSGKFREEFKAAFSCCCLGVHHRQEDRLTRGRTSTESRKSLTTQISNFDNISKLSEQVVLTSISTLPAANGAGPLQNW
As to the kind of experiment: Counterscreen assay for antagonists of the orexin 1 receptor (OX1R; HCRTR1): Fluorescence-based cell-based dose response assay for antagonists of the orexin 2 receptor (OX2R; HCRTR2), run by assay provider. Format: functional. Background: The purpose of a counterscreen is to sort out artefacts and off-target activity.

Experiment [7] concerns the target T5, Mannose-6-phosphate isomerase (Homo sapiens, UniProt P34949).
T5 sequence (P34949 whole entry): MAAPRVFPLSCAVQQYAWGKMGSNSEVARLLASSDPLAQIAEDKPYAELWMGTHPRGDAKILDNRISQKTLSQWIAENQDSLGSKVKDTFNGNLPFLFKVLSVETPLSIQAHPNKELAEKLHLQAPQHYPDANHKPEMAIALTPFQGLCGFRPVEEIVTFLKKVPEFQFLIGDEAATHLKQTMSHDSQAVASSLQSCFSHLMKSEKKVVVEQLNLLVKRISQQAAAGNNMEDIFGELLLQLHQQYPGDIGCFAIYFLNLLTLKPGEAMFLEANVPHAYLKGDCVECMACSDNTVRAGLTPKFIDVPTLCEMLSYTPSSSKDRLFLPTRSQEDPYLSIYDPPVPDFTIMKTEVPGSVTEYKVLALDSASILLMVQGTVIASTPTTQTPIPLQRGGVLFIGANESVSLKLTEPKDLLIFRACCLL
As to the kind of experiment: MPI enzyme activity inhibition – biochemical, fluorescence intensity, coupled assay, primary screen (AID 1209).

Experiment [8] in a line: Counterscreen for antagonists of the orexin 1 receptor (OX1R; HCRTR1): Fluorescence-based cell-based high throughput dose response assay to identify antagonists of the parental CHO cell line. [Related pubchem assays (depositor defined):AID434989, AID435008, AID463079, AID485270, AID492963, AID492964, AID492965, AID493232, AID504699, AID504701]. Format: functional.
Experiment [9] has as its target T4, Orexin receptor type 2. As to the kind of experiment: Counterscreen assay for antagonists of the orexin 1 receptor (OX1R; HCRTR1): Homogeneous Time Resolved Fluorescence (HTRF)-based cell-based dose response assay for antagonists of the orexin 2 receptor (OX2R; HCRTR2), run by assay provider. In kind it is functional.
The subject of a further experiment is CHO-K1. As to the kind of experiment: Counterscreen for antagonists of the orexin 1 receptor (OX1R; HCRTR1): Homogeneous time resolved fluorescence (HTRF)-based cell-based dose response assay to identify antagonists of the parental CHO-K1 cell line. [Related pubchem assays (depositor defined):AID434989, AID435008, AID463079, AID485270, AID492963, AID492964, AID492965, AID493232, AID504699, AID504701]. In kind it is functional. The note with it: Cricetulus griseus.

The test system of experiment [10] is BJ. As to the kind of experiment: BJ-TERT fibroblast viability loss – cell-based, RAS-independent, luminescence, dose response (AID 1933). The note with it: Homo sapiens. In kind it is functional.
Experiment [11] in a line: DRD fibroblast viability loss – cell-based, non-viral oncogenic, luminescence, dose response (AID 1934). Format: functional. The note with it: Homo sapiens.
Experiment [12] is described as follows: alpha-synuclein stem-loop luciferase translation blockers – H4 neuroglioma cells, luminescence, confirmation (AID 1988). Format: functional, cell-based.
Experiment [13] deals with BJ. As to the kind of experiment: cells. Format: functional, cell-based. The settings on record: Homo sapiens.
Experiment [14] can be described thus: luciferase reporter signal reduction – luminescence, H4-C neuroglioblastoma cells, dose response (AID 2458).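 Note: H4 neuroglioblastoma cells stably carrying a luciferase reporter gene fusion.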 Format: functional, cell-based. (In general: A reporter such as luciferase makes a cellular process visible.)
Experiment [15] can be described thus: cells. Format: functional, cell-based.
Experiment [16] deals with BJ. As to the kind of experiment: BJ-TERT-LT-ST fibroblast viability loss – cell-based, RAS-independent, luminescence, dose response (AID 1935).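 Note: BJ fibroblasts immortalized with TERT plus LT and ST oncogenes.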 In kind it is functional. The note with it: Homo sapiens.
A short description of experiment [17]: alpha-synuclein stem-loop translation blockers – luminescence, H4 neuroglioblastoma cells, dose confirmation, confirmation (AID 2454).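 Note: H4 neuroglioblastoma cells carrying an alpha-synuclein 5'UTR luciferase reporter; potency for inhibition of the luciferase signal.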 Format: functional, cell-based.

Active and inactive are the calls of the source.

By EC50 is commonly meant the midpoint of the concentration-response curve. What is called IC50 is the midpoint of a concentration-inhibition curve.

Luciferin 4-monooxygenase, sequence (P08659 whole entry, the tested form may be a part): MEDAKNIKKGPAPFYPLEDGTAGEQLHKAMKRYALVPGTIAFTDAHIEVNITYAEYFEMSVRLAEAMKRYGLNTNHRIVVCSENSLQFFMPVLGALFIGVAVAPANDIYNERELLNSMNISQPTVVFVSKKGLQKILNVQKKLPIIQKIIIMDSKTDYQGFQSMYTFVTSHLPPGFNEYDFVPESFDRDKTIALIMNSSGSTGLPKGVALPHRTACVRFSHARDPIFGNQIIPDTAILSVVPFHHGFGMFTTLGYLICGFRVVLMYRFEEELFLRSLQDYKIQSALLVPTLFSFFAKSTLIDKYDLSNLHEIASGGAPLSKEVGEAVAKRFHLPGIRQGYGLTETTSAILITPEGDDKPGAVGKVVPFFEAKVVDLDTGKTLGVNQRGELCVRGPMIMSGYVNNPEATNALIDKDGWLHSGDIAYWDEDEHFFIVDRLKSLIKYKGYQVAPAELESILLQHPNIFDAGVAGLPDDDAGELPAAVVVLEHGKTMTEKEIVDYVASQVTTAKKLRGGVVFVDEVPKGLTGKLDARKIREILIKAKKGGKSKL
Procathepsin L, sequence (P07711 whole entry): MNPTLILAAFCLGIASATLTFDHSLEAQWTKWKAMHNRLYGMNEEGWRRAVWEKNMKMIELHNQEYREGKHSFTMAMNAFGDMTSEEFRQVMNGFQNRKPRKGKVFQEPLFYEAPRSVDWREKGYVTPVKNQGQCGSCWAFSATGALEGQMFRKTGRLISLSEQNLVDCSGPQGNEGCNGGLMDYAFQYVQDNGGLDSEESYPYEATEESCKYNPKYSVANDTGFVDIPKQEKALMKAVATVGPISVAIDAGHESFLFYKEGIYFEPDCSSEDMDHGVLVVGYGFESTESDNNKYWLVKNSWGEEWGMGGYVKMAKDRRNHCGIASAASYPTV

In the case of `Cc1cc(C)c2c(N)c(C(=O)Nc3nccs3)sc2n1`, the EC50 is > 50 µM (not active) with HT-1080, > 67.5 µM (inactive) in the experiment “cells [1]”, > 100 µM (not active) in [2] and > 67.5 µM (inactive) in [3].
On to `COc1cc([N+](=O)[O-])ccc1NC(=O)Nn1cnnc1`, for which the IC50 is 0.353 µM (active) on Aspartyl aminopeptidase and > 59.6 µM (not active) against Procathepsin L.
Consider `CCc1c(C)sc(N=C(S)Nc2nc(C)cc(C)n2)c1C(=O)OC`, for which the half-maximal inhibitory concentration (IC50) is 4.29 µM (active) in experiment [4]; 2.23 µM (active) in experiment [5]; 15 µM (inactive) on Orexin receptor type 2 [6]; > 50 µM (not active) in [7]; > 49.8 µM (inactive) in experiment [8]; > 50 µM (inactive) at Orexin receptor type 2 [9]. The IC50 in the experiment with CHO-K1 is > 66.2 µM (inactive).
Regarding `C=CCn1c(C)cc(C(=O)CSc2ccc(NC(C)=O)cc2)c1C`, the values for the EC50 (with HT-1080; in experiment [2]) were > 50 µM (not active) and 0.77 µM (active), respectively.
Take `COC(=O)c1ccc(C)c(NS(=O)(=O)c2ccc(OC)cc2)c1`: the EC50 in the experiment on BJ [10] is 0.689 µM (inconclusive); in experiment [11], 0.682 µM (active); in [12], < 0.1 µM (active); with BJ [13], 1.61 µM (active); in [14] it was > 12 µM (not active); in “cells [15]” it was 1.02 µM (active). Further, the concentration giving a half-maximal response (EC50) in the experiment on BJ [16] was 0.353 µM (inconclusive); in experiment [17], 0.834 µM (active).

Values taken from ChEMBL document CHEMBL1201862, “PubChem BioAssay data set” (2004).
